Source: ChEMBL document CHEMBL1126269, “Optimization of the quinoline and substituted benzyl moieties of a series of phenyltetrazole leukotriene D4 receptor antagonists” (J Med Chem, 1992)
Where “and” joins values, the source holds several entries; their conditions need not be identical. Equal entries are not always repeated.

target: T1, Cysteinyl leukotriene receptor 1 (Cavia porcellus) (UniProt Q2NNR5); assay: Antagonistic activity in vitro against leukotriene-D4 (LTD4) induced guinea pig ileum contraction; assay type: functional, tissue-based
T1 sequence (whole entry): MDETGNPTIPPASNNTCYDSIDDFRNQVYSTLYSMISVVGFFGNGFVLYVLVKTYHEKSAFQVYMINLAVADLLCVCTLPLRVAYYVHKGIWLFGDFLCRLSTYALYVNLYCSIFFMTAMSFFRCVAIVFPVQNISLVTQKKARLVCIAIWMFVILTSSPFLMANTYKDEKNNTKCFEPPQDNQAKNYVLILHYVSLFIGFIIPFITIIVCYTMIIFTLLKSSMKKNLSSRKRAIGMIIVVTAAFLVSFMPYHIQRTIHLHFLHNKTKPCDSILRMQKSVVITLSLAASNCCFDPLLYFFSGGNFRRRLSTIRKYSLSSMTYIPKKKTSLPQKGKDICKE

Row | pKB | Compound
1 | 9.1 | c1cc(OCc2ccc3ccccc3n2)cc(-c2nnn(Cc3ccccc3-c3nn[nH]n3)n2)c1

test system: Cysteinyl leukotriene receptor (Cavia porcellus); assay: In vitro inhibition of leukotriene D4 induced contractions of isolated guinea pig ileum.

Row | pKB | Compound
2 | 7.9 | O=C(O)c1ccoc1Cn1nnc(-c2cccc(/C=C/c3ccc4ccccc4n3)c2)n1
3 | 7.4 | COc1cc(C(=O)O)ccc1Cn1nnc(-c2cccc(/C=C/c3ccc4ccccc4n3)c2)n1
4 | 7.6 | O=C(O)Cc1ccccc1Cn1nnc(-c2cccc(OCc3ccc4ccccc4n3)c2)n1
5 | 7.9 | O=C(O)c1ccccc1CCn1nnc(-c2cccc(/C=C/c3ccc4ccc(Cl)cc4n3)c2)n1
6 | 7.7 | O=C(O)Cc1ccccc1Cn1nnc(-c2cccc(/C=C/c3ccc4ccccc4n3)c2)n1
7 | 7.8 | O=C(O)c1sccc1Cn1nnc(-c2cccc(/C=C/c3ccc4ccc(Cl)cc4n3)c2)n1
8 | 8.8 | O=C(O)c1ccccc1Cn1nnc(-c2cccc(/C=C/c3ccc4ccc(Cl)cc4n3)c2)n1
9 | 8.5 | O=C(O)c1ccccc1Cn1nnc(-c2cccc(/C=C/c3ccc4ccccc4n3)c2)n1
10 | 8.3 and 8.4 | O=C(O)c1ccccc1Cn1nnc(-c2cccc(OCc3ccc4ccccc4n3)c2)n1

Continued, molecule first:

Row | Compound | pKB
11 | COc1cc(C(=O)O)ccc1Cn1nnnc1-c1cccc(/C=C/c2ccc3ccccc3n2)c1 | 8.2
12 | O=C(O)c1cccc(Cn2nnc(-c3cccc(/C=C/c4ccc5ccccc5n4)c3)n2)c1 | 7.1
13 | O=C(O)c1ccccc1Cn1nnc(-c2cccc(OCc3ccc4ccc(Cl)cc4n3)c2)n1 | 8.7
14 | O=C(O)c1ccccc1Cn1nnc(-c2cccc(CSc3ccc4ccccc4n3)c2)n1 | 7
15 | O=C(O)c1ccccc1Cn1nnnc1-c1cccc(OCc2ccc3ccccc3n2)c1 | 6.5
16 | O=C(O)c1cc(F)ccc1Cn1nnc(-c2cccc(/C=C/c3ccc4ccc(Cl)cc4n3)c2)n1 | 9.1
17 | COc1cccc(C(=O)O)c1Cn1nnc(-c2cccc(OCc3ccc4ccccc4n3)c2)n1 | 8.4
18 | O=C(O)c1ccccc1Cn1nnc(-c2cccc(OCc3nc4ccccc4s3)c2)n1 | 8.3
